Converted amounts (≈) assume the structure as drawn.
Experiments:
iNOS = iNOS inhibition, nitrite level in LPS-treated macrophages (Griess); type: cell-based, mouse; conditions: for IC50: Mus musculus, RAW264.7, LPS 5 µg/mL, 24 h, NA = no activity up to 100 µg/mL
Procedure: Mouse macrophage (RAW264.7) cells were seeded in the wells of 96-well plates followed by 24 hrs for confluency according to the method described previously. The test samples were treated with LPS (5 μg/mL) and followed by 24-hour incubation as well. The nitrite level in cell supernatant was measured by Griess reagent. The dose response curves gave indication for IC50 values. Parthenolide was used as positive control.

NF-κB = NF-κB luciferase reporter gene assay in PMA-treated SW1353 cells; type: cell-based; conditions: Homo sapiens; SW1353, PMA 70 ng/mL 8 h; NA = no activity up to 100 µg/mL; read-out: NF-kB inhibition (IC50)
Procedure: According to the method described earlier, the 96-well plates with density of 1.25 × 10^5 cells per well were seeded with human chondrosarcoma cells (SW1353) transfected with NF-κB luciferase plasmid construct. After incubation for 24 h, cells were treated with the test samples for half an hour followed by PMA (70 ng/mL) for 8 h. Luciferase assay kit (Promega, Madison, WI, USA) was used for determination of luciferase activity, and parthenolide was used as the positive control in this test.

PPARα = molecular target: T1, PPARα (Homo sapiens, UniProt Q07869); test: PPARα reporter gene assay (luciferase fold induction); type: cell-based; conditions: for PPAR alpha agonistic activity, fold induction: dual activation
T1 construct: expressed in transfected cells
T1 sequence (Q07869 1-468): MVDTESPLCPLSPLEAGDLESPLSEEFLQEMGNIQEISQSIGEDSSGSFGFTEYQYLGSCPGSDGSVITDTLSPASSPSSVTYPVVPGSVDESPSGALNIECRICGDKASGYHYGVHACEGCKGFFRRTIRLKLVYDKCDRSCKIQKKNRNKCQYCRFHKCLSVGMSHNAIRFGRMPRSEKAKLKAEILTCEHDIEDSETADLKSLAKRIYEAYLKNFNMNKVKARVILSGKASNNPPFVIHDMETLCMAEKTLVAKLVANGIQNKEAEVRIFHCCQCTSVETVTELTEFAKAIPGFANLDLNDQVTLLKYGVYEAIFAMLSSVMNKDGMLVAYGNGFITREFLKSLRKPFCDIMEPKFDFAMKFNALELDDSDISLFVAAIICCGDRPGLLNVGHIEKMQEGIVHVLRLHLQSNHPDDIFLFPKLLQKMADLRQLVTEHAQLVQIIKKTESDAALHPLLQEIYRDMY
Procedure: (§1) A reporter gene assay was carried out as described previously. Briefly, upon confluency, the different concentrations of the test samples were exposed to transfected cells for 24 hrs. Vehicle control was taken into consideration when the fold induction in luciferase activity was calculated. Both rosiglitazone and ciprofibrate were used as control drugs for PPARα and PPARγ, respectively.
(§2) Fold induction in the PPAR activity was detected in response to the methanol fraction and pure compounds according to untreated controls. A fold induction of 1.5 means a 50% increase in PPAR activity. […] Several studies have been carried out with the aim of exploring the potential of selective PPARγ modulators. The dual activator effect of P2 is in agreement with previous literature.

PPARγ = molecular target: T2, PPARγ (Homo sapiens, UniProt P37231); test: PPARγ reporter gene assay (luciferase fold induction); type: cell-based; conditions: for PPAR gamma agonistic activity, fold induction: dual activation
T2 construct: expressed in transfected cells
T2 sequence (P37231 1-505): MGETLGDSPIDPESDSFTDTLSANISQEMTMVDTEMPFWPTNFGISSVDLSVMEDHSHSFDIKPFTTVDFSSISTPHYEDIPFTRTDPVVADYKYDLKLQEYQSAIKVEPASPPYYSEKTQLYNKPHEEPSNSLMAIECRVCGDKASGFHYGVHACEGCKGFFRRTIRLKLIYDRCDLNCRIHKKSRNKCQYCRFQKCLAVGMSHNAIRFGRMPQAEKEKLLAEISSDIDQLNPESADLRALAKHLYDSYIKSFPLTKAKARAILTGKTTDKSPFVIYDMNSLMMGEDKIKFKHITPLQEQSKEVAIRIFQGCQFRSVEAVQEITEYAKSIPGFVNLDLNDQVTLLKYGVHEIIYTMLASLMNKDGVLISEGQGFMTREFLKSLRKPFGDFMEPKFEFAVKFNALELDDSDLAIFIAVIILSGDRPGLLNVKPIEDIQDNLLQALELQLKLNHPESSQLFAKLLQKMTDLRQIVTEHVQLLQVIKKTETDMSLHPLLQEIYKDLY
Procedure: as §1, §2

HepG2 cells = test: Cellular antioxidant assay (decrease in oxidative stress, ABAP); type: cell-based, human; conditions: at 250 µg/mL for pure compounds
Procedure: Human hepatoma cell line (HepG2) was the cell line of choice in this study according to the previously described method. At a density of 60,000 cells/well, the HepG2 cells were seeded in a 96-well plate and incubated for 24 h for confluency. PBS was used for washing the cells, followed by samples treatment. The SpectraMax plate reader was used for reading the plates after addition of 600 μM of ABAP. The area under the curve (AUC) of fluorescence units and time were two parameters used for indication of the percent decrease in oxidative stress. Percent decrease in oxidative stress = 100 − ((AUC sample/AUC control) × 100). Quercetin was used as a positive control.

LLC-PK11 = test: Cytotoxicity assay (Borenfreund method, 48 h); type: cell-based; conditions: NA = no cytotoxic activity upto 100 µg/mL, read-out: Noncancer cells IC50, LLC-PK11
Procedure: (§3) Four human cancer cell lines (SK-OV-3, SK-MEL, BT-549 and KB) and two noncancerous kidney cell lines (VERO and LLC-PK1) were measured in the in vitro cytotoxic study. Test samples were added on the cell lines with variable concentrations, followed by 48 h incubation. According to the Borenfreund method, the cell viability was determined at the end of incubation, using doxorubicin as a positive control.

[1] = test system: four cancerous cell lines as well as the two normal cell lines; test: Cytotoxicity, whole panel; type: cell-based; conditions: all cell lines
Procedure: as §3

[2] = test system: Escherichia fergusonii (CU928158.2); test: Antibacterial well diffusion; type: cell-based; conditions: 10 µL per well, mean ± SD
From the text: (§4) (CP017183.1), Escherichia fergusonii (CU928158.2), and Pseudomonas aeruginosa (NR-117678.1) and Gram-positive Staphylococcus aureus (CP011526.1) and Bacillus licheniformis (KX785171.1) using well diffusion and broth microdilution techniques as described by Berghe and […] [16]. The bacterial strains were suspended in a nutrient broth for 24 hr, and the suspension then spread on Mueller-Hinton agar. […] Amikacin was used as the positive control.

[3] = test system: Escherichia fergusonii (CU928158.2); test: Antibacterial broth microdilution (MIC); type: cell-based; conditions: read-out: MIC, E. fergusonii
From the text: as §4

IC50 (iNOS) [µg/mL]	PPAR alpha agonistic activity, fold induction (PPARα)	PPAR gamma agonistic activity, fold induction (PPARγ)	Structure (SMILES)	% decrease in oxidative stress (HepG2 cells) [%]	iNOS inhibition (in words) (iNOS)	Cytotoxicity (in words) [1]	other results
0.35 ± 0.22 (≈ 1.41 µM)	–	–	C=C1C(=O)O[C@H]2[C@H]1CC/C(C)=C/CC[C@@]1(C)O[C@@H]21 [Parthenolide, reference compound]	–	–	–	IC50 (NF-κB): 0.5 ± 0.21 µg/mL (≈ 2.01 µM)
> 50	≥ 1.5 fold	≥ 1.5 fold	Oc1cc(O)c2c(c1)O[C@@H](c1ccc(O)c(O)c1)[C@H](O)C2 [Compound P2, (-)-catechin]	39	showed iNOS inhibition	not cytotoxic	fold induction at 12.5 µg/mL (PPARα; 12.5 µg/mL, 24 hrs, NA = not active, read-out: Fold induction PPAR alpha): 1.19; fold induction at 25 µg/mL (PPARα; 25 µg/mL, 24 hrs, NA = not active, read-out: Fold induction PPAR alpha): 1.31; fold induction at 50 µg/mL (PPARα; 50 µg/mL, 24 hrs, NA = not active, read-out: Fold induction PPAR alpha): 1.47; fold induction at 12.5 µg/mL (PPARγ; 12.5 µg/mL, 24 hrs, NA = not active, read-out: Fold induction PPAR gamma): 1.19; fold induction at 25 µg/mL (PPARγ; 25 µg/mL, 24 hrs, NA = not active, read-out: Fold induction PPAR gamma): 1.55; fold induction at 50 µg/mL (PPARγ; 50 µg/mL, 24 hrs, NA = not active, read-out: Fold induction PPAR gamma): 1.53; IC50 (LLC-PK11): 16 µg/mL (≈ 55.1 µM); ZOI diameter, E. fergusonii [2]: 8 ± 1 mm; MIC [3]: 11 µg/mL (≈ 37.9 µM)
–	no PPAR agonistic activity	no PPAR agonistic activity	O=C(Oc1cc(O)cc2c1C[C@@H](O)[C@H](c1ccc(O)c(O)c1)O2)c1cc(O)c(O)c(O)c1 [Compound P3, 2S,3R-3,3′,4′,5,7-pentahydroxyflavane-5-O-gallate]	57	did not show any	not cytotoxic	–
–	–	–	CN(CCOc1ccc(CC2SC(=O)NC2=O)cc1)c1ccccn1 (centres unmarked) [Rosiglitazone, reference compound]	–	–	–	fold induction at 10 µM (PPARγ; control drug at 10 µM, read-out: Fold induction PPAR gamma): 3.7

From article PMC6444227, “Pharmacological Evaluation of Secondary Metabolites and Their Simultaneous Determination in the Arabian Medicinal Plant Plicosepalus curviflorus Using HPTLC Validated Method” (Journal of Analytical Methods in Chemistry, 2019)
